Measured values as given in patent US8106055B2, “Substituted amide compounds” (Gruenenthal GmbH, priority 2007, dated 2012).

Experiments:
[1] = target: T1, human bradykinin 1 receptor (B1R) (Homo sapiens, UniProt P46663); experiment: Functional investigation on the human bradykinin 1 receptor (B1R), Ca2+ FLIPR assay in CHO K1 hB1R cells; format: cell-based; conditions: CHO-K1, B1R antagonism human; test substance 10 μM; Ca2+ FLIPR, CHO K1 hB1R cells; read-out: B1R Ant. h [10 μM] % Inhibition
T1 construct: expressed in transfected cells; host or cells: CHO K1 cells
T1 sequence (P46663 1-353): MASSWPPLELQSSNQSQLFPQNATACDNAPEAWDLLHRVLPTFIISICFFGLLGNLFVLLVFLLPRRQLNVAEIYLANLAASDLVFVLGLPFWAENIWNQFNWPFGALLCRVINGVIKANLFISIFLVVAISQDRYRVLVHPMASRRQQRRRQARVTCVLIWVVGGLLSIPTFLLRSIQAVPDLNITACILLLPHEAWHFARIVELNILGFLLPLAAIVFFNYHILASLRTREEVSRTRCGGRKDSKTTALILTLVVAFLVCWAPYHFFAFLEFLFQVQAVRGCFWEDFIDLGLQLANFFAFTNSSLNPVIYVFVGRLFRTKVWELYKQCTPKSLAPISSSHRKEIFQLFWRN
How it was run: (§1)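 Fluo-4 Ca2+ readout, peak fluorescence. Stable CHO K1 transfectants; compound pre-incubated 10-20 min, then EC80 agonist—Lys-Des-Arg9-BK for hB1R, Des-Arg9-BK for rB1R. % inhibition vs maximal inhibition; IC50 from multiple concentrations, duplicate/triplicate, ≥2 independent runs.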

[2] = target: T2, bradykinin 1 receptor (B1R) of the rat (Rattus norvegicus, UniProt P97583); experiment: Functional investigation on the rat bradykinin 1 receptor (B1R), Ca2+ FLIPR assay in CHO K1 rB1R cells; format: cell-based; conditions: CHO-K1, B1R antagonism rat; test substance 10 μM; Ca2+ FLIPR, CHO K1 rB1R cells; read-out: B1R Ant. r [10 μM] % Inhibition
T2 construct: expressed in transfected cells; host or cells: CHO K1 cells
T2 sequence (P97583 1-337): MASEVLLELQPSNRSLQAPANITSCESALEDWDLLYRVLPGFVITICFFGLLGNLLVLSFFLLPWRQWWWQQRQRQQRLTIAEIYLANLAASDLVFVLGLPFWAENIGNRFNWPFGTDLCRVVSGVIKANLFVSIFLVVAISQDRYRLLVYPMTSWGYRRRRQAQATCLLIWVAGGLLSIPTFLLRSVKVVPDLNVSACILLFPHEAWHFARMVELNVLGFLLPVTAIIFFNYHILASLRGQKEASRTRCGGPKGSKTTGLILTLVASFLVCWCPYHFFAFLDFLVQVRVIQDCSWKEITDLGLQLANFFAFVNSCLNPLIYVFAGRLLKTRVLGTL
How it was run: as §1

Row | Compound | inhibition at 10 µM [1] [%] | inhibition at 10 µM [2] [%]
1 | CN(C)C(c1cccs1)C1CCC(CCNC(=O)COCCN(C)S(=O)(=O)c2ccc(Cl)cc2Cl)CC1 (stereo not shown) [Example 9, 2-(2-(2,4-dichloro-N-methylphenylsulfonamido)ethoxy)-N-(2-(4-((dimethylamino) (thiophen-2-yl)methyl)cyclohexyl)ethyl)acetamide] | 97 | 43
2 | CN(C)C(c1cccs1)C1CCC(NC(=O)COCCN(C)S(=O)(=O)c2ccc(F)cc2)CC1 (stereo not shown) [Example 10, N-(4-((dimethylamino)(thiophen-2-yl)methyl)cyclohexyl)-2-(2-(4-fluoro-N-methylphenylsulfonamido)ethoxy)acetamide] | -17 | 9
3 | CN(C)C(c1cccs1)C1CCC(NC(=O)COC2CCN(S(=O)(=O)c3cccc(C(F)(F)F)c3)C2)CC1 (stereo not shown) [Example 11, N-(4-((dimethylamino)(thiophen-2-yl)methyl)cyclohexyl)-2-(1-(3-(trifluoromethyl)phenylsulfonyl)pyrrolidin-3-yloxy)acetamide] | -16 | 36
4 | Cc1cc(C)c(S(=O)(=O)N2CCC(OCC(=O)NC3CCC(C(c4cccs4)N(C)C)CC3)C2)c(C)c1 (stereo not shown) [Example 12, N-(4-((dimethylamino)(thiophen-2-yl)methyl)cyclohexyl)-2-(1-(mesitylsulfonyl)pyrrolidin-3-yloxy)acetamide] | 41 | 30
5 | CN(C)C(c1ccccc1)C1CCC(CNC(=O)COCCN(C)S(=O)(=O)c2c(Cl)cccc2Cl)CC1 (stereo not shown) [Example 13, 2-(2-(2,6-dichloro-N-methylphenylsulfonamido)ethoxy)-N-((4-((dimethylamino)(phenyl)methyl)cyclohexyl)methyl)acetamide] | 99 | 44
6 | CN(C)C(c1ccccc1)C1CCC(CNC(=O)COCCN(C)S(=O)(=O)c2c(Cl)cc(Cl)cc2Cl)CC1 (stereo not shown) [Example 14, N-((4-((dimethylamino)(phenyl)methyl)cyclohexyl)methyl)-2-(2-(2,4,6-trichloro-N-methylphenylsulfonamido)ethoxy)acetamide] | 104 | 40
7 | CN(C)C(c1ccccc1)C1CCC(CNC(=O)COCCN(Cc2ccccc2)S(=O)(=O)c2ccccc2)CC1 (stereo not shown) [Example 15, 2-(2-(N-benzylphenylsulfonamido)ethoxy)-N-((4-((dimethylamino)(phenyl)methyl)cyclohexyl)methyl)acetamide] | 11 | -18
8 | CCN(CCOCC(=O)NCC1CCC(C(c2cccs2)N(C)C)CC1)S(=O)(=O)c1c(C)cc(OC)c(C)c1C (stereo not shown) [Example 16, N-((4-((dimethylamino)(thiophen-2-yl)methyl)cyclohexyl)methyl)-2-(2-(N-ethyl-4-methoxy-2,3,6-trimethylphenylsulfonamido)ethoxy)acetamide] | 86 | 59
9 | CN(C)C(c1ccccc1)C1CCC(CNC(=O)COCC2CCCCN2S(=O)(=O)c2ccc(Cl)c(Cl)c2)CC1 (stereo not shown) [Example 17, 2-((1-(3,4-dichlorophenylsulfonyl)piperidin-2-yl)methoxy)-N-((4-((dimethylamino)(phenyl)methyl)cyclohexyl)methyl)acetamide] | 81 | 22
10 | CN(C)C(c1ccccc1)C1CCC(CNC(=O)COCC2CCCN2S(=O)(=O)c2ccc(Cl)c(Cl)c2)CC1 (stereo not shown) [Example 18, 2-((1-(3,4-dichlorophenylsulfonyl)pyrrolidin-2-yl)methoxy)-N-((4-((dimethylamino)(phenyl)methyl)cyclohexyl)methyl)acetamide] | 62 | 11
11 | COc1ccc(S(=O)(=O)N2Cc3ccccc3CC2COCC(=O)NCC2CCC(C(c3ccccc3)N(C)C)CC2)cc1 (stereo not shown) [Example 19, N-((4-((dimethylamino)(phenyl)methyl)cyclohexyl)methyl)-2-((2-(4-methoxyphenylsulfonyl)-1,2,3,4-tetrahydroisoquinolin-3-yl)methoxy)acetamide] | 63 | 4
12 | COc1cc(C)c(S(=O)(=O)N2CCN(CCOCC(=O)NC3CCC(C(c4ccccc4)N(C)C)CC3)CC2)c(C)c1C (stereo not shown) [Example 20, N-(4-((dimethylamino)(phenyl)methyl)cyclohexyl)-2-(2-(4-(4-methoxy-2,3,6-trimethylphenylsulfonyl)piperazin-1-yl)ethoxy)acetamide] | 101 | -9
13 | CN(C)C(c1cccs1)C1CCC(CCNC(=O)COC2CCN(S(=O)(=O)c3ccc(Cl)cc3Cl)C2)CC1 (stereo not shown) [Example 21, 2-(1-(2,4-dichlorophenylsulfonyl)pyrrolidin-3-yloxy)-N-(2-(4-((dimethylamino)(thiophen-2-yl)methyl)cyclohexyl)ethyl)acetamide] | 88 | 50
14 | COc1ccc(S(=O)(=O)N2CCC(OCC(=O)NCC3CCC(C(c4ccccc4)N(C)C)CC3)C2)cc1OC (stereo not shown) [Example 22, 2-(1-(3,4-dimethoxyphenylsulfonyl)pyrrolidin-3-yloxy)-N-((4-((dimethylamino)(phenyl)methyl)cyclohexyl)methyl)acetamide] | 0 | 26
15 | COc1ccc(S(=O)(=O)N2CCC(OCC(=O)NCC3CCC(C(c4cccs4)N(C)C)CC3)C2)cc1OC (stereo not shown) [Example 23, 2-(1-(3,4-dimethoxyphenylsulfonyl)pyrrolidin-3-yloxy)-N-((4-((dimethylamino)(thiophen-2-yl)methyl)cyclohexyl)methyl)acetamide] | -25 | 7
16 | CN(C)C(c1cccs1)C1CCC(CNC(=O)COC2CCN(S(=O)(=O)c3cccc(C(F)(F)F)c3)C2)CC1 (stereo not shown) [Example 25, N-((4-((dimethylamino)(thiophen-2-yl)methyl)cyclohexyl)methyl)-2-(1-(3-(trifluoromethyl)phenylsulfonyl)pyrrolidin-3-yloxy)acetamide] | -6 | 30
17 | Cc1cc(C)c(S(=O)(=O)N2CCC(OCC(=O)NCC3CCC(C(c4ccccc4)N(C)C)CC3)C2)c(C)c1 (stereo not shown) [Example 26, N-((4-((dimethylamino)(phenyl)methyl)cyclohexyl)methyl)-2-(1-(mesitylsulfonyl)pyrrolidin-3-yloxy)acetamide] | 51 | 38
18 | Cc1cc(C)c(S(=O)(=O)N2CCC(OCC(=O)NCC3CCC(C(c4cccs4)N(C)C)CC3)C2)c(C)c1 (stereo not shown) [Example 27, N-((4-((dimethylamino)(thiophen-2-yl)methyl)cyclohexyl)methyl)-2-(1-(mesitylsulfonyl)pyrrolidin-3-yloxy)acetamide] | 60 | 60
19 | CN(C)C(c1cccs1)C1CCC(NC(=O)COC2CCN(S(=O)(=O)c3ccc(F)cc3)C2)CC1 (stereo not shown) [Example 28, N-(4-((dimethylamino)(thiophen-2-yl)methyl)cyclohexyl)-2-(1-(4-fluorophenylsulfonyl)pyrrolidin-3-yloxy)acetamide] | -7 | 17
20 | COc1cc(C)c(S(=O)(=O)N2CCCC(OCC(=O)NCC3CCC(C(c4ccccc4)N(C)C)CC3)C2)c(C)c1C (stereo not shown) [Example 29, N-((4-((dimethylamino)(phenyl)methyl)cyclohexyl)methyl)-2-(1-(4-methoxy-2,3,6-trimethylphenylsulfonyl)piperidin-3-yloxy)acetamide] | 35 | 17
